Laboratory results reported in patent US12606546B2, “Small molecule inhibitors of calcium channel activity and uses thereof” (Arizona Board of Regents on Behalf of the University of …, priority 2020, dated 2026).
Like-named read-outs stand apart in the source and are kept apart here.

Key:
[1] = system: high voltage activated calcium channels; assay: Fura-2AM calcium imaging, 90 mM KCl-evoked Ca2+ influx in DRG neurons; details: separated enantiomers, data not shown
[2] = system: total calcium current in small- to medium-sized DRG neurons; assay: Whole-cell patch clamp of total Ca2+ currents in DRG neurons; format: cell-based, rat; details: for Activation V1/2 / Activation k (slope factor) / Inactivation V1/2 / Inactivation k (slope factor): Boltzmann fit, mean ± SEM; for peak calcium current density: overnight (DMSO −96.91±12.39); for reduction in Ca2+ currents at peak current density: overnight, compared to 0.1% DMSO
Experimental: Recordings were obtained from acutely dissociated DRG neurons as described in Bellampalli et al. Patch-clamp recordings were performed at room temperature (22-24° C.). Currents were recorded using an EPC 10 Amplifier-HEKA (HEKA Elektronik, Ludwigshafen, Germany) linked to a computer with Patchmaster software. DRG neurons were incubated overnight (˜16-24 h) with 20 μM of 3-25-R and 3-14-3-S.
For total calcium current (ICa^2+) recordings, the external solution consisted of the following (in mM): 110 N-methyl-D-glucamine, 10 BaCl2, 30 TEA-Cl, 10 HEPES, 10 glucose, 0.001 TTX (pH 7.29 adjusted with NaOH, and mOsm/L=310). Patch pipettes were filled with an internal solution containing (in mM): 150 […], 10 HEPES, 5 Mg-ATP, and 5 BAPTA, (pH 7.24 adjusted with CsOH, and from a holding potential of −90 mV to obtain the current-voltage (I-V) relation. Normalization of currents to each cell's capacitance (pF) was performed to allow for collection of current density data. For I-V curves, functions were fitted to data using a non-linear least squares analysis. I-V curves were fitted using double Boltzmann functions: f=a+g1/(1+exp((x−V1/21)/k1))+g2/(1+exp(−(x−V1/22)/k2)) where x is the prepulse potential, V1/2 is the mid-point potential and k is the corresponding slope factor for single Boltzmann functions. Double Boltzmann fits were used to describe the shape of the curve, not to imply the existence of separate channel populations. Numbers 1 and 2 simply indicate first and second mid-points; a along with g are fitting parameters.
Activation curves were obtained from the I-V curves by dividing the peak current at each depolarizing step by the driving force according to the equation: G=I/(Vmem−Erev), where I is the peak current, Vmem is the membrane potential and Erev is the reversal potential. The conductance (G) was normalized against the maximum conductance (Gmax). Steady-state inactivation (SSI) curves were obtained by applying an H-infinity protocol that consisted of 1.5-seconds conditioning pre-pulses from −100 to +30 mV in 10-mV increments followed by a 20-millisecond test pulse to +10 mV. Inactivation curves were obtained by dividing the peak current recorded at the test pulse by the maximum current (Imax). Activation and SSI curves were fitted with the Boltzmann equation.

rats [3] = assay: ALGOGram: acetic acid test (abdominal cramps); format: in vivo, rat; details: 0.4 μg/μl i.t., 120 min after treatment
Experimental: (§1) The analgesic profile of 3-14-3-S was analyzed by an in vivo screening tool, ALGOGram™ (ANS Biotech, Riom, France). This platform allowed for obtaining information about the effects of compounds in 5 different pain areas (Acute and tonic pain, inflammatory pain, neuropathic pain, postoperative pain and visceral pain), by comparing their activity on a battery of 10 validated behavioral pain models with an ANS Biotech reference historical database (Table 1). Assessment of the efficacy, and analgesic effects of a single administration (0.4 μg/μl, i.t.) 3-14-3-S was analyzed in the rat models of. Tail flick test in healthy rats, paw pressure test in healthy rats, acetic acid-induced writhing, formalin test, Bennett model of peripheral mononeuropathy, oxaliplatin-induced neuropathy, carrageenan-induced mechanical hyperalgesia, kaolin-induced arthritis, Brennan model of incisional pain; and trinitrobenzene sulfonic acid (TNBS)-induced visceral hypersensitivity (Table 2).
(§2) Testing: 120 min after treatment. n=4/model/test (excepted for 3-14-3-S-treated group in Oxaliplatin model n=3). Results are expressed for each group as a percentage of activity calculated from the mean value of the vehicle-treated animals and compared to naïve animals, control paw or cut-off value, depending on the test (from the ANS Biotech historical database). Ligand Docking

rats [4] = assay: ALGOGram: carrageenan-induced mechanical hyperalgesia (paw pressure test); format: in vivo, rat; details: 0.4 μg/μl i.t., 120 min after treatment
Experimental: as §1, §2

healthy rats [5] = assay: ALGOGram: healthy rats, paw pressure test; format: in vivo, rat; details: 0.4 μg/μl i.t., 120 min after treatment
Experimental: as §1, §2

rats [6] = assay: ALGOGram: TNBS-induced visceral hypersensitivity (colonic distension); format: in vivo, rat; details: 0.4 μg/μl i.t., 120 min after treatment
Experimental: as §1, §2

CaV3.3 = target: T1, CaV3.3 (Homo sapiens, UniProt Q9P0X4); assay: Whole-cell patch clamp in HEK293T cells transiently expressing CaV3.3; format: cell-based; details: for effect on CaV3.3 mediated currents: 50 μM
T1 construct: expressed in transfected cells; host or cells: HEK293T
T1 sequence (Q9P0X4 whole entry, species assumed): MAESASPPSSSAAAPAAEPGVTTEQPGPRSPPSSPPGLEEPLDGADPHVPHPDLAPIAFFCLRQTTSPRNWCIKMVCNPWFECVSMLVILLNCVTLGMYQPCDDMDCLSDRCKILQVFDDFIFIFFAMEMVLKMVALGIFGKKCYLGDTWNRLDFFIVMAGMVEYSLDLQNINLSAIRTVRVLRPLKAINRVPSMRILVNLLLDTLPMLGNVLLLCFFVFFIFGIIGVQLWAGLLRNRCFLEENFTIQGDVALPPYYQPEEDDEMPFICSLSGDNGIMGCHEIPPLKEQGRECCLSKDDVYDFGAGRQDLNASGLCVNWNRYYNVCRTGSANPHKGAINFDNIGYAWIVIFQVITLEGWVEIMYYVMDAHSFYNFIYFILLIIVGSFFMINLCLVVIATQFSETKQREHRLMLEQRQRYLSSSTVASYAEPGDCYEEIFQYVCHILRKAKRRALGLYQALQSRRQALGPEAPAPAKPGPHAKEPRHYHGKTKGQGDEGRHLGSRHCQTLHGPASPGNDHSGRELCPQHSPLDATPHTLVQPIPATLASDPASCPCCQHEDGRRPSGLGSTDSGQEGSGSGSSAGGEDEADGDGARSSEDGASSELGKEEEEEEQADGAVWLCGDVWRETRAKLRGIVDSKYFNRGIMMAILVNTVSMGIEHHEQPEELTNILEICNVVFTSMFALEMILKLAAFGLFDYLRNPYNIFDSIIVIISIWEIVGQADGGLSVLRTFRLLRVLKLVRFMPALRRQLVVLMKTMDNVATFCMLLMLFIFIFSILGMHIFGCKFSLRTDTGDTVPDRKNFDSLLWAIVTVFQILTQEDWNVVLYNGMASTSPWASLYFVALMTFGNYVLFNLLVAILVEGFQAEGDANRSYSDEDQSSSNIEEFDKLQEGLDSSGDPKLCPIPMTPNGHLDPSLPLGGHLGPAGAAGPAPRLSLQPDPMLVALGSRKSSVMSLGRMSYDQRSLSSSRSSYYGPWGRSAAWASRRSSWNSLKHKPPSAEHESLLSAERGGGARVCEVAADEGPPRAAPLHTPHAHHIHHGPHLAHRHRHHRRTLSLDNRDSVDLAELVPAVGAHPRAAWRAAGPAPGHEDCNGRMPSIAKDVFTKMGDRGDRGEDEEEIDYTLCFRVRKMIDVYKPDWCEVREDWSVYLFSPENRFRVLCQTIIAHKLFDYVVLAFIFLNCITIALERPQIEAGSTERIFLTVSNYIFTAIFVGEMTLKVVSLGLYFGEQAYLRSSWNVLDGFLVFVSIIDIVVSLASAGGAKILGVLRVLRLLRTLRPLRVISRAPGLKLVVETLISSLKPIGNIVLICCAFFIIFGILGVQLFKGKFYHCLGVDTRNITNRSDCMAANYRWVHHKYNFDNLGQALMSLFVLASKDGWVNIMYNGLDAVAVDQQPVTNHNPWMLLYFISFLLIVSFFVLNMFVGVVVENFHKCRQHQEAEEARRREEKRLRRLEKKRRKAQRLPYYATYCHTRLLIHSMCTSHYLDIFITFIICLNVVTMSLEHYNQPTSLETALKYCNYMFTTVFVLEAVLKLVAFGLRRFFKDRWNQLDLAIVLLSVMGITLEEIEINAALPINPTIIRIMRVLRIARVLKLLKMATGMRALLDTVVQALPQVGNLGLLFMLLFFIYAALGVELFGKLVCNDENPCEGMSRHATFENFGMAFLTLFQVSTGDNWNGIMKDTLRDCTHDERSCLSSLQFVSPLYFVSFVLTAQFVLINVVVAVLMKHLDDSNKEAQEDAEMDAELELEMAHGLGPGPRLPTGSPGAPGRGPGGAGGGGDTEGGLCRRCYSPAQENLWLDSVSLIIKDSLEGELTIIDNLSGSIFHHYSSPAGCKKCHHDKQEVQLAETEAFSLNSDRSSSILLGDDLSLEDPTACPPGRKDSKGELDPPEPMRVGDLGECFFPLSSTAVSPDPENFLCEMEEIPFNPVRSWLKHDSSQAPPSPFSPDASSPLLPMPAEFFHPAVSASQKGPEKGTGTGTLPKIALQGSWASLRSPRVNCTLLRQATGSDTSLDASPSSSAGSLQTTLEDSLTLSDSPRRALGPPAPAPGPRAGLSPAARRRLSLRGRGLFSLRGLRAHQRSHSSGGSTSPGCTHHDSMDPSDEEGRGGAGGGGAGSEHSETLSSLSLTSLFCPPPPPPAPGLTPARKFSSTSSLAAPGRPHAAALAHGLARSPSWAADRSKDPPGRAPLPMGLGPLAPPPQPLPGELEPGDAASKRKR
Experimental: (§3) Human embryonic kidney HEK293T cells were cultured in DMEM supplemented with 10% fetal bovine serum and 1% penicillin/streptomycin sulfate, maintained in standard conditions (5% CO2, 37° C., saturated humidity). Cells were transfected with 2 μg of either of the channel cDNAs using Lipofectamine 2000 when cell confluence reached 70-90%. Four to six hours after transfection, cells were seeded onto poly-l-lysine-coated coverslips. Positively transfected cells were indicated by the fluorescence of co-transfected enhanced green fluorescent protein (0.2 μg). All the experiments were performed 36 hours after cell transfection.
(§4) For electrophysiological recording, the external solution contained (in mM): 105 CsCl, TEA-Cl, 2 CaCl2), 1 MgCl2, and 10 glucose (pH 7.4 adjusted with CsOH, and mOsm/L=295-305). The internal solution consisted of (in mM): 120 CsMeSO4, 11 EGTA, 2 Mg-ATP, and HEPES (pH 7.4 adjusted with CsOH, and mOsm/L=295-305). All experiments were conducted at room temperature (22-24° C.). The T-type calcium currents were elicited by a depolarization to −20 or −10 mV for 200-millisecond from a hold potential of −90 mV. Data were collected by the Patchmaster software in a HEKA EPC-10 USB patch-clamp system. Voltage errors were minimized by using 80% series resistance compensation. The capacitance artifact was canceled by using the computer-controlled circuitry of the patch-clamp amplifier. The concentration-response curves of the test compounds on CaV3 channels were fitted to a Hill equation to estimate the potency of the compounds (IC50).

rats [7] = assay: ALGOGram: oxaliplatin-induced neuropathy (paw immersion test); format: in vivo, rat; details: 0.4 μg/μl i.t., 120 min after treatment, n=3
Experimental: as §1, §2

CaV3.1 = target: T2, CaV3.1 (Homo sapiens, UniProt O43497); assay: Whole-cell patch clamp in HEK293T cells transiently expressing CaV3.1; format: cell-based; details: for effect on CaV3.1 mediated currents: 50 μM
T2 construct: expressed in transfected cells; host or cells: HEK293T
Experimental: as §3, §4

rats [8] = assay: ALGOGram: formalin test (paw licking time); format: in vivo, rat; details: 0.4 μg/μl i.t., 120 min after treatment
Experimental: as §1, §2

healthy rats [9] = assay: ALGOGram: healthy rats, tail flick test; format: in vivo, rat; details: 0.4 μg/μl i.t., 120 min after treatment
Experimental: as §1, §2

rats [10] = assay: ALGOGram: Bennett model of peripheral mononeuropathy (paw pressure test); format: in vivo, rat; details: 0.4 μg/μl i.t., 120 min after treatment
Experimental: as §1, §2

CaV3.2 = target: T3, CaV3.2 (Homo sapiens, UniProt O95180); assay: Whole-cell patch clamp in HEK293T cells transiently expressing CaV3.2; format: cell-based; details: for effect on CaV3.2 mediated currents: 50 μM
T3 construct: expressed in transfected cells; host or cells: HEK293T
T3 sequence (O95180 whole entry): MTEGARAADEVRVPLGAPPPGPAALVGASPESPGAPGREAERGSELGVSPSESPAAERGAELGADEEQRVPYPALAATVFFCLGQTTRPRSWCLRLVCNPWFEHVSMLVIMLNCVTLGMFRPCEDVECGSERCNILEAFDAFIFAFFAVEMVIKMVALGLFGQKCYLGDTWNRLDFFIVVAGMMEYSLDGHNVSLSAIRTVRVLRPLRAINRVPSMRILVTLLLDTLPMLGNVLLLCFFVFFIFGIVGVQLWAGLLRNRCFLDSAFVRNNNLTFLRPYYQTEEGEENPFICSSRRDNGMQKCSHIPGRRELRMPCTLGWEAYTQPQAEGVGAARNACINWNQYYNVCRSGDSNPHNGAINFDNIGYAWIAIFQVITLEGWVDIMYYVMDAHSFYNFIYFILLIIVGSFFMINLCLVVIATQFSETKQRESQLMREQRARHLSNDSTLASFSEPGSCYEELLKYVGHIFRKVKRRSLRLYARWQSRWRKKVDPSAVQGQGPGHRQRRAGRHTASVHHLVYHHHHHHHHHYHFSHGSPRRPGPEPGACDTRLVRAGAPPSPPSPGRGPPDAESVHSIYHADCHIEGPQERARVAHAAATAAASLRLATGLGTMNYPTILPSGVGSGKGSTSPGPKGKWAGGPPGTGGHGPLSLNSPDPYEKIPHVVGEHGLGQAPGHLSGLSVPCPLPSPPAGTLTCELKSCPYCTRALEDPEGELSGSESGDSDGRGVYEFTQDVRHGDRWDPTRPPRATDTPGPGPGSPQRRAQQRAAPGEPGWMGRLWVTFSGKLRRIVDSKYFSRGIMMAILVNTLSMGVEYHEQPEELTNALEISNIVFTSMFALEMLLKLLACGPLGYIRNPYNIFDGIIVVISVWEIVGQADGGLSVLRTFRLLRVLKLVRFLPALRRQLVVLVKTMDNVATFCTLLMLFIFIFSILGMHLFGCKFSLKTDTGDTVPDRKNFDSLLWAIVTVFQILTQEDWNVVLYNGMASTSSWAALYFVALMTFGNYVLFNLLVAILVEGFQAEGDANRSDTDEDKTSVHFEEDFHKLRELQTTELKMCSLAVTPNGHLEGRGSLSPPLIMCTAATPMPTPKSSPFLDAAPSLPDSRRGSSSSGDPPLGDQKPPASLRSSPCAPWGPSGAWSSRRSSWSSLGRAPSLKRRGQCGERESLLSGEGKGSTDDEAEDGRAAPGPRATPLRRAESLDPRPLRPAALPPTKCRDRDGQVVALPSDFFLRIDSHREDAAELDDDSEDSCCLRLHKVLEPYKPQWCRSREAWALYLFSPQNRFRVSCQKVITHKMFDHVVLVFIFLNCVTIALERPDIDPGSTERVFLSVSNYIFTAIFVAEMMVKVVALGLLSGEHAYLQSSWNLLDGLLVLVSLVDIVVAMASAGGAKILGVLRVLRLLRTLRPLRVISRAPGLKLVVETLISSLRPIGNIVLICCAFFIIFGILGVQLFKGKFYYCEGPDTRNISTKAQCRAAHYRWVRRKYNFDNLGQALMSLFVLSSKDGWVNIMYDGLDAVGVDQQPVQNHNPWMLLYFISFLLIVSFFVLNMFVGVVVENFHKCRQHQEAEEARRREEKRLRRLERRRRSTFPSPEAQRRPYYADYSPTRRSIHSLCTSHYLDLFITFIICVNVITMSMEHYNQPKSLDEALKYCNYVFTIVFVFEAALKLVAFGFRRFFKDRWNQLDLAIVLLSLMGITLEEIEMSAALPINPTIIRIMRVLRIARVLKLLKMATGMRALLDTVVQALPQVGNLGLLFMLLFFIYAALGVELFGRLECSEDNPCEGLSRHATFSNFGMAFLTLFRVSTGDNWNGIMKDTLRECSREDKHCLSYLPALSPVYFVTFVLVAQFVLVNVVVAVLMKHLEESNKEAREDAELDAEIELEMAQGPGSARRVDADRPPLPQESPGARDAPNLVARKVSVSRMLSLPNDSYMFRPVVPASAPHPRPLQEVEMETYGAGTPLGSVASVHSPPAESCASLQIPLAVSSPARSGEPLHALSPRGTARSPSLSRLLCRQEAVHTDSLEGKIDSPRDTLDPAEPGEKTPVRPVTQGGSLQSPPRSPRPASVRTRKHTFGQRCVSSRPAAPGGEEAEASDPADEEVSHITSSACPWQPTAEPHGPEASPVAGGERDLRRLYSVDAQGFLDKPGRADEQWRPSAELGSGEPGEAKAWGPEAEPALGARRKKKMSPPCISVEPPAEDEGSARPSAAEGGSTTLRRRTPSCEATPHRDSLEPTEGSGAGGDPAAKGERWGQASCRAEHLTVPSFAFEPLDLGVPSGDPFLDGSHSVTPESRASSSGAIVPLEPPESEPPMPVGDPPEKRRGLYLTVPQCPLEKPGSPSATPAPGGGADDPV
Experimental: as §3, §4

[11] = target: influenza virus polymerase PA-PB1 protein-protein interactions (Influenza A virus, UniProt P03433); details: previously tested [93]; cited from earlier work
rats [12] = details: oxaliplatin, paw immersion test, 100 mg/kg p.o., T60 min; cited from earlier work
rats [13] = details: carrageenan, paw pressure test, 30 mg/kg p.o., T60 min; cited from earlier work
rats [14] = details: kaolin, gait score, 30 mg/kg p.o., T60 min; cited from earlier work
healthy rats [15] = details: tail flick test, 4 mg/kg s.c., T30 min; cited from earlier work
healthy rats [16] = details: paw pressure test, 4 mg/kg s.c., T30 min; cited from earlier work
rats [17] = details: formalin test, 4 mg/kg s.c., T30 min, cited from earlier work
rats [18] = details: Brennan model, electronic Von Frey test, 4 mg/kg s.c., T30 min; cited from earlier work

## O=C(Nc1cccc([C@H](c2nnnn2Cc2ccccc2)N2CCN(C(=O)c3ccco3)CC2)c1)c1ccc(Br)cc1 [1-159-2-R]
[1]
  Ca2+ influx triggered with 90 mM KCl (response, normalized): 67.37±2.294%

## Cc1ccc([C@H](c2nnnn2Cc2ccccc2)N2CCN(C(=O)c3ccccc3)CC2)s1 [3-14-3-S]
[1]
  Ca2+ influx triggered with 90 mM KCl (response, normalized): 87.25±2.245%
[2]
  Activation V1/2: 4.083 ± 2.038 mV
  Activation k (slope factor): 9.308 ± 1.780
  Inactivation V1/2: −25.246 ± 2.129 mV
  Inactivation k (slope factor): −12.570 ± 2.035
  peak calcium current density: −41.70±7.927 pA/pF
  reduction in Ca2+ currents at peak current density: ~56.97%
Rats [3]
  Percentage of activity vs. vehicle: 33%
Rats [4]
  Percentage of activity vs. vehicle: 29%
Healthy rats [5]
  Percentage of activity vs. vehicle: 3%
Rats [6]
  Percentage of activity vs. vehicle: −11%
CaV3.3
  effect on CaV3.3 mediated currents: inhibited
CaV3.3; depolarizing voltage of −10 mV
  IC50: 26.3 µM
Rats [7]
  Percentage of activity vs. vehicle: 6%
CaV3.1
  effect on CaV3.1 mediated currents: inhibited
CaV3.1; depolarizing voltage of −10 mV
  IC50: 23 µM
Rats [8]; paw licking time early phase
  Percentage of activity vs. vehicle: 16%
Rats [8]; paw licking time late phase
  Percentage of activity vs. vehicle: 36%
Healthy rats [9]
  Percentage of activity vs. vehicle: 5%
Rats [10]
  Percentage of activity vs. vehicle: 14%
CaV3.2
  effect on CaV3.2 mediated currents: inhibited
CaV3.2; depolarizing voltage of −10 mV
  IC50: 35.6 µM

## Cc1cccc(C)c1-n1nnnc1[C@@H](Cc1ccccc1)N1CCN(S(=O)(=O)c2ccccc2)CC1 [3-25-R]
[1]
  Ca2+ influx triggered with 90 mM KCl (response, normalized): 62.43±1.967%
[2]
  Activation V1/2: 2.383 ± 2.037 mV
  Activation k (slope factor): 9.659 ± 1.798
  Inactivation V1/2: −26.709 ± 2.655 mV
  Inactivation k (slope factor): −15.208 ± 2.714
  peak calcium current density: −54.1±8.385 pA/pF
  reduction in Ca2+ currents at peak current density: ~44.17%
CaV3.3
  effect on CaV3.3 mediated currents: negligible effects
CaV3.1
  effect on CaV3.1 mediated currents: negligible effects
CaV3.2
  effect on CaV3.2 mediated currents: negligible effects

## C[C@@H](c1ccccc1)n1nnnc1[C@H](c1ccsc1)N1CCC(n2c(=O)[nH]c3ccccc32)CC1 [5bl, 1-{1-[(S)-{1-[(1S)-1-phenylethyl]-1H-1,2,3,4-tetrazol-5-yl}(thiophen-3-yl)methyl]piperidin-4-yl}-2,3-dihydro-1H-1,3-benzodiazol-2-one]
[11]
  inhibition of influenza virus polymerase PA-PB1 protein-protein interactions: active

## CNCC[C@H](Oc1cccc2ccccc12)c1cccs1 [Duloxetine]
Rats [12]
  Percentage of activity vs. vehicle, internal reference: 66%

## COc1ccc2c(c1)c(CC(=O)O)c(C)n2C(=O)c1ccc(Cl)cc1 [Indomethacin]
Rats [13]
  Percentage of activity vs. vehicle, internal reference: 92%
Rats [14]
  Percentage of activity vs. vehicle, internal reference: 64%

## CN1CC[C@]23c4c5ccc(O)c4O[C@H]2[C@@H](O)C=C[C@H]3[C@H]1C5 [Morphine]
Healthy rats [15]
  Percentage of activity vs. vehicle, internal reference: 66%
Healthy rats [16]
  Percentage of activity vs. vehicle, internal reference: 67%
Rats [17]; early phase
  Percentage of activity vs. vehicle, internal reference: 65%
Rats [17]; late phase
  Percentage of activity vs. vehicle, internal reference: 77%
Rats [18]
  Percentage of activity vs. vehicle, internal reference: 107%
